Assay results as given in ChEMBL document CHEMBL4052794, “Design, synthesis, docking and biological evaluation of 4-phenyl-thiazole derivatives as autotaxin (ATX) inhibitors” (Bioorg Med Chem Lett, 2017).

These compounds were tested against T1, Autotaxin (Homo sapiens, UniProt Q13822) (assay: Inhibition of human ATX using FS-3 as substrate measured every 5 mins for 30 mins by fluorescence assay).

First: O=C(OCc1ccccc1)N1CCC(Nc2nc(-c3ccc(O)c(O)c3)cs2)C1 (configuration not stated)
Second: O=C(O)c1cc(-c2csc(NC3CCN(C(=O)OCc4ccccc4)C3)n2)ccc1O (configuration not stated)
The IC50 of the first is 8.9-fold lower: 1230 nM for the first, 10900 nM for the second. The first is the more potent here.

`O=C(Cc1cccc(Nc2nc(-c3ccc(O)c(O)c3)cs2)c1)NCc1ccccc1` and `O=S(=O)(Cc1cccc(Nc2nc(-c3ccc(O)c(O)c3)cs2)c1)NCc1ccccc1` are within 1.5-fold of each other in IC50: 8060 nM for the first, 11600 nM for the second.

Going from `NS(=O)(=O)c1cc(-c2csc(C(=O)Nc3cccc(C(=O)O)c3)n2)ccc1Cl` to `NS(=O)(=O)c1cc(-c2csc(C(=O)NCc3ccc(Cl)cc3)n2)ccc1Cl`, the IC50 falls from 10500 nM to 2110 nM (5-fold).

`NS(=O)(=O)c1cc(-c2csc(NC3CCN(C(=O)OCc4ccccc4)CC3)n2)ccc1Cl` and `NS(=O)(=O)c1cc(-c2csc(NC3CCN(C(=O)OCc4ccccc4)C3)n2)ccc1Cl` (configuration not stated) are within 1.5-fold of each other in IC50: 1300 nM for the first, 1340 nM for the second.

`CN(c1ccc(S(N)(=O)=O)cc1)c1nc(-c2ccc(O)c(CO)c2)cs1` and `CN(c1ccc(S(N)(=O)=O)cc1)c1nc(-c2ccc(O)c(C(N)=O)c2)cs1` are within 1.5-fold of each other in IC50: 5820 nM for the first, 6570 nM for the second.

First: NS(=O)(=O)c1cc(-c2csc(C(=O)NC3CCN(C(=O)OCc4cc(Cl)cc(Cl)c4)CC3)n2)ccc1Cl
Second: O=C(NC1CCN(C(=O)OCc2cc(Cl)cc(Cl)c2)CC1)c1nc(-c2ccc(Cl)cc2)cs1
The IC50 of the first is 14-fold lower: 4.47 nM for the first, 63.3 nM for the second.

Compared with `NC(=O)c1cc(-c2csc(NC3CCN(C(=O)OCc4ccccc4)C3)n2)ccc1O` (configuration not stated), `O=C(OCc1ccccc1)N1CCC(Nc2nc(-c3ccc(CP(=O)(O)O)cc3)cs2)C1` (configuration not stated) is 430-fold lower in IC50: 4470 nM for the first, 10.3 nM for the second. The second is the more potent here.

Going from `CS(=O)(=O)Nc1cccc(-c2csc(NC3CCN(C(=O)OCc4cc(Cl)cc(Cl)c4)CC3)n2)c1` to `CS(=O)(=O)Nc1ccc(-c2csc(C(=O)NC3CCN(C(=O)OCc4cc(Cl)cc(Cl)c4)CC3)n2)cc1`, the IC50 falls from > 100 nM to 2.99 nM.

`CN(c1ccc(S(N)(=O)=O)cc1)c1nc(-c2ccc(O)c(C(=O)O)c2)cs1` and `CN(c1ccc2c(c1)CS(=O)(=O)N2)c1nc(-c2ccc(O)c(C(=O)O)c2)cs1` cannot be ordered by IC50: 10600 nM for the first, > 10000 nM for the second.

First: O=C(NC1CCN(C(=O)OCc2ccccc2)CC1)c1nc(-c2ccc(CP(=O)(O)O)cc2)cs1
Second: O=C(OCc1ccccc1)N1CCC(Nc2nc(-c3ccc(CP(=O)(O)O)cc3)cs2)CC1
The IC50 of the first is 5.5-fold lower: 13.7 nM for the first, 75.9 nM for the second. The first is the more potent here.

Compared with `O=C(NC1CCN(C(=O)OCc2cc(Cl)cc(Cl)c2)CC1)c1nc(-c2ccc(CP(=O)(O)O)cc2)cs1`, `COc1ccc(-c2csc(C(=O)NC3CCN(C(=O)OCc4cc(Cl)cc(Cl)c4)CC3)n2)cc1` is 14-fold higher in IC50: 2.19 nM for the first, 30.3 nM for the second.

First: CS(=O)(=O)Nc1ccc(-c2csc(N(Cc3ccccn3)c3ccc4nn[nH]c4c3)n2)cc1
Second: O=C(Nc1cccc(Nc2nc(-c3ccc(O)c(O)c3)cs2)c1)OCc1ccccc1
The IC50 of the first is 3.7-fold lower: 2570 nM for the first, 9430 nM for the second.

With `NS(=O)(=O)c1cc(-c2csc(C(=O)NC3CCN(C(=O)OCc4ccccc4)CC3)n2)ccc1Cl` the IC50 was 505 nM.

The compounds below were run against T1, Autotaxin (assay: Inhibition of ATX in human plasma using LPC as substrate pretreated for 15 mins followed by substrate addition measured after 3 hrs by LC-MS/MS analysis).

First: CS(=O)(=O)Nc1ccc(-c2csc(C(=O)NC3CCN(C(=O)OCc4cc(Cl)cc(Cl)c4)CC3)n2)cc1
Second: O=C(NC1CCN(C(=O)OCc2cc(Cl)cc(Cl)c2)CC1)c1nc(-c2ccc(CP(=O)(O)O)cc2)cs1
The IC50 of the first is 49-fold higher: 735 nM for the first, 15 nM for the second. The second is the more potent here.
